Measurements as given in US9950062B2, “Compounds and compositions as TLR activity modulators” (priority 2009, dated 2018).

How the values were obtained:
[1] = Muscle levels 24 hours after intramuscular injection; details: 24 hours after intramuscular injection (100 μg) with protein antigens, Balb/C mice
[2] = Adsorption to aluminum hydroxide, LC-MS/MS of supernatant; details: 10 mM histidine buffer pH 6.8; final compound concentration 0.1 mg/mL; 37° C. for 5 hours; 100% minus % unbound
Description: The resulting solution was diluted 10-fold with blank histidine buffer to a final compound concentration of 0.1 mg/mL. Diluted solutions were incubated at 37° C. for 5 hours. The samples were centrifuged at 14,000 rpm for 10 minutes to pellet the insoluble. The supernatant (along with an internal standard) was then evaluated by LC-MS/MS using a ballistic gradient (from 5% CH3CN-0.5% formic acid to 95% CH3CN-1.0% formic acid in 3.5 minutes) on a Waters Atlantis dC18 (50 mm×2.1 mm) column at room temperature against a calibration curve prepared at known compound concentrations ranging from 0.005 to 50 μM. The concentration in the supernatant was calculated as % unbound to alum compared to control; the % bound to alum was calculated as 100% minus % unbound.

five different strains = assay: Strain coverage of sera after immunization with modified 5CVMB; assay type: in vivo, MenB; details: compound pre-adsorbed to aluminium hydroxide
Text: 2010 claiming priority from U.S. Ser. No. 61/237,576 (SEQ ID NO: 126 therein).

Cc1cc(OCCOCCOCCP(=O)(O)O)ccc1CCc1cnc2c(N)nc3cc(CCC(=O)O)ccc3c2c1 [Compound 20, 3-(5-amino-2-(2-methyl-4-(2-(2-(2-phosphonoethoxy)ethoxy)ethoxy)phenethyl)benzo[f][1,7]naphthyridin-8-yl)propanoic acid]
muscle level of compound ([1]; with aluminium hydroxide adjuvant): readily detected
muscle level of compound ([1]; without aluminium hydroxide adjuvant): undetectable
% bound to alum [2]: 97.0%
strain coverage compared to aluminium hydroxide alone (five different strains): improves the strain coverage
